# Measurements as given in patent US11572399B2, “Long-acting GIP peptide analogues” (University of Copenhagen, priority 2017, dated 2023).
# Peptide text beside a SMILES is read from it. * marks the point of attachment. C16 diacid = O=C(O)CCCCCCCCCCCCCCC(=O)*
# Tests used:
# human GIP receptor [1] = target: T1, human GIP receptor (Homo sapiens, UniProt P48546); assay: cAMP accumulation assay, antagonism of a GIP-mediated cAMP response (50-80% of max); format: cell-based; conditions: for Fold change of IC50 versus GIP(5-30)NH2: fold change of IC50 from GIP(5-30)NH2
# T1 construct: host or cells: COS-7, transient transfection (calcium phosphate), cDNA in pCMV-Script
# T1 sequence (P48546 22-466): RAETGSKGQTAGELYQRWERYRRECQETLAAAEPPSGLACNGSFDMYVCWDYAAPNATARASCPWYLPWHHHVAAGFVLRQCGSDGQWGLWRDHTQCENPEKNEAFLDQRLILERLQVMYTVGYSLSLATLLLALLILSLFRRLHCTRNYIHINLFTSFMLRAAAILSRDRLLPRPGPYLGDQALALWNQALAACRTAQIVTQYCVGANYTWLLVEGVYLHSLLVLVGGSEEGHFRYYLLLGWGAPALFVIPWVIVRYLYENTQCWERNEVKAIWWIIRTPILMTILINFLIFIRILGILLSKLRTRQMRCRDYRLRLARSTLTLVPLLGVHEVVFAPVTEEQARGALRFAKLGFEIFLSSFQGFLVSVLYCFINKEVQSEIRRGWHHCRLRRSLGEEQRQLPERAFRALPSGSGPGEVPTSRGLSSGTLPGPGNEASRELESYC
# Procedure: The day after, the cells were washed twice with Hepes buffered saline (HBS) buffer and incubated with HBS and 1 mM 3-isobutyl-1-methylxanthine (IBMX) for 30 min at 37° C. […] The HitHunter™ cAMP XS assay (DiscoveRx) was carried out according to the manufacturer's instructions.
# human GIP receptor [2] = target: T1, human GIP receptor; assay: cAMP accumulation assay, agonism (ligand alone); format: cell-based; conditions: Table 1; for Emax: COS-7, intrinsic cAMP activity, COS-7 cells
# human GIP receptor [3] = target: T1, human GIP receptor; assay: 125I-human GIP competition binding assay, in the presence and absence of 2% HSA; conditions: for Fold change HSA (2%)/Casein (0.1%): IC50 (plus HSA)/IC50 (minus HSA); for Binding (+/−HSA) Fold: fold change +HSA/−HSA; for Fold change in affinity, IC50 (plus HSA)/IC50 (minus HSA): presence vs absence of 2% HSA, proxy for albumin binding;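 for all read-outs here: nonspecific binding taken as radioligand bound to untransfected cells, IC50 obtained from nonlinear regression fits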
# [4] = antagonism of GIP-mediated cAMP response, COS-7 cells, read-out: cAMP accumulation IC50
# [5] = transiently transfected COS-7 cells, Table 1 and text, read-out: cAMP antagonism nM (IC50, antagonistic potency)
# [6] = binding in 0.1% casein (absence of HSA), log value, read-out: logIC50 0.1% casein (converted)
# [7] = binding in presence of 2% HSA, read-out: logIC50 2% HSA (converted)
# [8] = heterologous competition binding, transiently transfected COS-7 cells expressing the human GIP receptor, read-out: Binding
Compound,IC50 (human GIP receptor [1]; [4]),Fold change of IC50 versus GIP(5-30)NH2 (human GIP receptor [1]),IC50 (human GIP receptor [1]; [5]),Emax (human GIP receptor [2]),Fold change HSA (2%)/Casein (0.1%) (human GIP receptor [3]),IC50 (human GIP receptor [3]; [6]),Binding (+/−HSA) Fold (human GIP receptor [3]),"Fold change in affinity, IC50 (plus HSA)/IC50 (minus HSA) (human GIP receptor [3])",IC50 (human GIP receptor [3]; [7]),IC50 (human GIP receptor [3]; [8]),Ability to antagonize the GIP-mediated cAMP response (in words) (human GIP receptor [1]),Ki (human GIP receptor [3]; absence of HSA),"EC50 (human GIP receptor [2]; given as log EC50 (negative sign), read-out: cAMP agonism EC50 (log) (converted))"
"CC[C@H](C)[C@H](NC(=O)[C@H](CO)NC(=O)[C@H](Cc1ccc(O)cc1)NC(=O)[C@H](CCCCNC(=O)CCCCCCCCCCCCCCC(=O)O)NC(=O)[C@H](CO)NC(=O)[C@@H](NC(=O)[C@H](Cc1ccccc1)NC(=O)[C@@H](N)[C@@H](C)O)[C@@H](C)CC)C(=O)N[C@@H](C)C(=O)N[C@@H](CCSC)C(=O)N[C@@H](CC(=O)O)C(=O)N[C@@H](CCCCN)C(=O)N[C@H](C(=O)N[C@@H](Cc1c[nH]cn1)C(=O)N[C@@H](CCC(N)=O)C(=O)N[C@@H](CCC(N)=O)C(=O)N[C@@H](CC(=O)O)C(=O)N[C@@H](Cc1ccccc1)C(=O)N[C@H](C(=O)N[C@@H](CC(N)=O)C(=O)N[C@@H](Cc1c[nH]c2ccccc12)C(=O)N[C@@H](CC(C)C)C(=O)N[C@@H](CC(C)C)C(=O)N[C@@H](C)C(=O)N[C@@H](CCC(N)=O)C(=O)N[C@@H](CCCCN)C(N)=O)C(C)C)[C@@H](C)CC [AT171, [hGIP(5-30)NH2[D9K]-C16diacid/9]] (H-TFISK(C16 diacid)YSIAMDKIHQQDFVNWLLAQK-NH2; N-terminus assumed)",31.6 nM,1.1,35 nM,0%,8.3,79.4 nM,6.3,8.3 fold,,,,,
"CC[C@H](C)[C@H](NC(=O)[C@H](CO)NC(=O)[C@H](CCCCNC(=O)CCCCCCCCCCCCCCC(=O)O)NC(=O)[C@H](CC(=O)O)NC(=O)[C@H](CO)NC(=O)[C@@H](NC(=O)[C@H](Cc1ccccc1)NC(=O)[C@@H](N)[C@@H](C)O)[C@@H](C)CC)C(=O)N[C@@H](C)C(=O)N[C@@H](CCSC)C(=O)N[C@@H](CC(=O)O)C(=O)N[C@@H](CCCCN)C(=O)N[C@H](C(=O)N[C@@H](Cc1c[nH]cn1)C(=O)N[C@@H](CCC(N)=O)C(=O)N[C@@H](CCC(N)=O)C(=O)N[C@@H](CC(=O)O)C(=O)N[C@@H](Cc1ccccc1)C(=O)N[C@H](C(=O)N[C@@H](CC(N)=O)C(=O)N[C@@H](Cc1c[nH]c2ccccc12)C(=O)N[C@@H](CC(C)C)C(=O)N[C@@H](CC(C)C)C(=O)N[C@@H](C)C(=O)N[C@@H](CCC(N)=O)C(=O)N[C@@H](CCCCN)C(N)=O)C(C)C)[C@@H](C)CC [AT172, [hGIP(5-30)NH2[Y10K]-C16diacid/10]] (H-TFISDK(C16 diacid)SIAMDKIHQQDFVNWLLAQK-NH2; N-terminus assumed)",,14.1,,0%,3.8,251 nM,2.8,,955 nM,252 nM,,,
"CC[C@H](C)[C@H](NC(=O)[C@H](CCCCNC(=O)CCCCCCCCCCCCCCC(=O)O)NC(=O)[C@H](Cc1ccc(O)cc1)NC(=O)[C@H](CC(=O)O)NC(=O)[C@H](CO)NC(=O)[C@@H](NC(=O)[C@H](Cc1ccccc1)NC(=O)[C@@H](N)[C@@H](C)O)[C@@H](C)CC)C(=O)N[C@@H](C)C(=O)N[C@@H](CCSC)C(=O)N[C@@H](CC(=O)O)C(=O)N[C@@H](CCCCN)C(=O)N[C@H](C(=O)N[C@@H](Cc1c[nH]cn1)C(=O)N[C@@H](CCC(N)=O)C(=O)N[C@@H](CCC(N)=O)C(=O)N[C@@H](CC(=O)O)C(=O)N[C@@H](Cc1ccccc1)C(=O)N[C@H](C(=O)N[C@@H](CC(N)=O)C(=O)N[C@@H](Cc1c[nH]c2ccccc12)C(=O)N[C@@H](CC(C)C)C(=O)N[C@@H](CC(C)C)C(=O)N[C@@H](C)C(=O)N[C@@H](CCC(N)=O)C(=O)N[C@@H](CCCCN)C(N)=O)C(C)C)[C@@H](C)CC [AT173, [hGIP(5-30)NH2[S11K]-C16diacid/11]] (H-TFISDYK(C16 diacid)IAMDKIHQQDFVNWLLAQK-NH2; N-terminus assumed)",,0.3,10 nM,0%,7.4,7.94 nM,9.7,7.4 fold,,8 nM,highest antagonistic potencies,6 nM,
"CC[C@H](C)[C@H](NC(=O)[C@H](CCCCN)NC(=O)[C@H](CC(=O)O)NC(=O)[C@H](CCSC)NC(=O)[C@H](C)NC(=O)[C@H](CCCCNC(=O)CCCCCCCCCCCCCCC(=O)O)NC(=O)[C@H](CO)NC(=O)[C@H](Cc1ccc(O)cc1)NC(=O)[C@H](CC(=O)O)NC(=O)[C@H](CO)NC(=O)[C@@H](NC(=O)[C@H](Cc1ccccc1)NC(=O)[C@@H](N)[C@@H](C)O)[C@@H](C)CC)C(=O)N[C@@H](Cc1c[nH]cn1)C(=O)N[C@@H](CCC(N)=O)C(=O)N[C@@H](CCC(N)=O)C(=O)N[C@@H](CC(=O)O)C(=O)N[C@@H](Cc1ccccc1)C(=O)N[C@H](C(=O)N[C@@H](CC(N)=O)C(=O)N[C@@H](Cc1c[nH]c2ccccc12)C(=O)N[C@@H](CC(C)C)C(=O)N[C@@H](CC(C)C)C(=O)N[C@@H](C)C(=O)N[C@@H](CCC(N)=O)C(=O)N[C@@H](CCCCN)C(N)=O)C(C)C [AT174, [hGIP(5-30)NH2[I12K]-C16diacid/12]] (H-TFISDYSK(C16 diacid)AMDKIHQQDFVNWLLAQK-NH2; N-terminus assumed)",,0.9,,0%,3.5,79.4 nM,6.1,,,80 nM,highest antagonistic potencies,,
"CC[C@H](C)[C@H](NC(=O)[C@H](CO)NC(=O)[C@H](Cc1ccc(O)cc1)NC(=O)[C@H](CC(=O)O)NC(=O)[C@H](CO)NC(=O)[C@@H](NC(=O)[C@H](Cc1ccccc1)NC(=O)[C@@H](N)[C@@H](C)O)[C@@H](C)CC)C(=O)N[C@@H](C)C(=O)N[C@@H](CCCCNC(=O)CCCCCCCCCCCCCCC(=O)O)C(=O)N[C@@H](CC(=O)O)C(=O)N[C@@H](CCCCN)C(=O)N[C@H](C(=O)N[C@@H](Cc1c[nH]cn1)C(=O)N[C@@H](CCC(N)=O)C(=O)N[C@@H](CCC(N)=O)C(=O)N[C@@H](CC(=O)O)C(=O)N[C@@H](Cc1ccccc1)C(=O)N[C@H](C(=O)N[C@@H](CC(N)=O)C(=O)N[C@@H](Cc1c[nH]c2ccccc12)C(=O)N[C@@H](CC(C)C)C(=O)N[C@@H](CC(C)C)C(=O)N[C@@H](C)C(=O)N[C@@H](CCC(N)=O)C(=O)N[C@@H](CCCCN)C(N)=O)C(C)C)[C@@H](C)CC [AT176, [hGIP(5-30)NH2[M14K]-C16diacid/14]] (H-TFISDYSIAK(C16 diacid)DKIHQQDFVNWLLAQK-NH2; N-terminus assumed)",105 nM,3.8,121 nM,12%,4.9,126 nM,5.1,,562 nM,114 nM,,,100 nM
